Measurements published in patent US8357694B2, “Substituted 5,6-dihydro-6-phenylbenzo[F]isoquinolin-2-amine compounds” (ArQule, Inc., priority 2008, dated 2013).
pIC50: −log10 of the molar value. Where a name gives a salt, the structure may show the parent alone.

How the values were obtained:
RT4 = assay: MTS cell kill assay, RT4; type: cell-based; conditions: Homo sapiens, RT-4, RT4
Experimental: (§1) Cells were maintained at 37° C., 5% CO2 in DMEM media supplemented with 1% fetal bovine serum, penicillin/streptomycin and fungizone (Invitrogen). Cells were seeded into 96-well tissue culture plates at 3000 per well and cultured at 37° C. for 18 hours. Test compounds were dissolved and diluted to 300× in DMSO then diluted 1:40 in DMEM.

AN3-CA = assay: MTS cell kill assay, AN3-CA; type: cell-based; conditions: Homo sapiens
Experimental: as §1

FGFR2 kinase = molecular target: T1, FGFR2 kinase (Homo sapiens, UniProt P21802, N549H); assay: fluorescent ELISA FGFR2 kinase assay (biochemical); conditions: FGFR2 (N549H); read-out: Biochemical data (IC50-μM) FGFR2 (N549H)
T1 construct: purchased Millipore 14-742
T1 sequence (P21802 456-770 N549H limits assumed): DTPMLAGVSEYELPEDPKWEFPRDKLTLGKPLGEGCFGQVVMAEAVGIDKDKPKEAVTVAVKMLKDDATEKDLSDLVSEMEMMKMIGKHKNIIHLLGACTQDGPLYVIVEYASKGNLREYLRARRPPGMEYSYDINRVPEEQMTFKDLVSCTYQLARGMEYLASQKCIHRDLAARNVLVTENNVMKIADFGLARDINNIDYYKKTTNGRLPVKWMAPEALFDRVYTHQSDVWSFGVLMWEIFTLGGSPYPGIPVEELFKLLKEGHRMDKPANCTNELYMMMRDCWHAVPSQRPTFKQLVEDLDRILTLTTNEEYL
Experimental: The enzymatic assays described herein are conducted according to the following procedures from commercially available reagents. In one, non limiting, example, a fluorescent ELISA assay is used to identify and characterize inhibitors of FGFR2 kinase as described herein. This heterogeneous assay utilizes a biotinylated peptide with a tyrosine motif as a substrate and an anti-phospho-tyrosine antibody to measure phosphorylation of the substrate. […] The reaction is incubated for 60 minutes. As the reaction proceeds, FGFR2 phosphorylates tyrosines in the peptide. […] Peptides are captured for 30 minutes at room temperature, the phosphorylation of peptides continues during this phase. The reaction is stopped by washing the streptavidin-coated plate 6 times with TBST. […] Unbound anti-phospho-tyrosine antibody is removed by washing the streptavidin-coated plate 6 times with TBST. […] Unbound secondary antibody is removed by washing the streptavidin-coated plate 6 times with TBST.

SNU-16 [1] = assay: MTS assay, SNU-16; type: cell-based; conditions: Homo sapiens; for IC50: SNU-16, SNU-16, read-out: MTS cell kill data (IC50-μM) SNU-16
Experimental: as §1

RT112 = assay: MTS cell kill assay, RT112; type: cell-based; conditions: Homo sapiens, RT-112, RT112
Experimental: as §1

KATO III [2] = assay: MTS assay, KATO III; type: cell-based
Experimental: as §1

SNU-16 [3] = assay: in vitro PD assay, SNU-16; type: cell-based; conditions: Homo sapiens
KATO III [4] = assay: in vitro PD assay, KATO III; type: cell-based; conditions: Homo sapiens
DLD-1 = assay: MTS cell kill, DLD-1; type: cell-based
Experimental: as §1

NCI-H1299 = assay: MTS cell kill, NCI-H1299; type: cell-based
Experimental: as §1

MDA-MB-231 = assay: MTS cell kill, MDA-MB-231; type: cell-based
Experimental: as §1

PC-3 = assay: MTS cell kill, PC-3; type: cell-based
Experimental: as §1

PACA-2 = assay: MTS cell kill, PACA-2; type: cell-based
Experimental: as §1

| IC50 (FGFR2 kinase) | Compound | IC50 (RT4) | IC50 (AN3-CA) | IC50 (SNU-16 [1]) | IC50 (RT112) | MTS cell kill data (% inhibition) DLD-1 (DLD-1) | MTS cell kill data (% inhibition) NCI-H1299 (NCI-H1299) | MTS cell kill data (% inhibition) KATO III (KATO III [2]) | MTS cell kill data (% inhibition) MDA-MB-231 (MDA-MB-231) | MTS cell kill data (% inhibition) PC-3 (PC-3) | MTS cell kill data (% inhibition) PACA-2 (PACA-2) | also measured |
| --- | --- | --- | --- | --- | --- | --- | --- | --- | --- | --- | --- | --- |
| 0.014 µM | COCCN1CCN(CCc2ccc(Nc3ncc4c(n3)-c3ccccc3[C@H](c3ccccc3F)C4)cc2)CC1 [Example 66, (R)-6-(2-fluorophenyl)-N-(4-(2-(4-(2-methoxyethyl)piperazin-1-yl)ethyl)phenyl)-5,6-dihydrobenzo[h]quinazolin-2-amine hydrochloride] | 1.55 µM | 0.361 µM | 1.28 µM |  |  |  |  |  |  |  |  |
| 0.0255 µM | COCCNCc1cccc(Nc2ncc3c(n2)-c2ccccc2[C@H](c2ccccc2F)C3)c1 [Example 178, (R)-6-(2-fluorophenyl)-N-(3-((2-methoxyethylamino)methyl)phenyl)-5,6-dihydrobenzo[h]quinazolin-2-amine hydrochloride] | 4.28 µM | 1.77 µM | 0.711 µM | 2.68 µM |  |  |  |  |  |  |  |
| 0.047 µM | COCCN1CCN(CCc2cccc(Nc3ncc4c(n3)-c3ccccc3[C@@H](c3ccccc3F)C4)c2)CC1 [Example 164, (S)-6-(2-fluorophenyl)-N-(3-(2-(4-(2-methoxyethyl)piperazin-1-yl)ethyl)phenyl)-5,6-dihydrobenzo[h]quinazolin-2-amine] | 2.97 µM | 1.38 µM | 1.34 µM | 1.51 µM |  |  |  |  |  |  |  |
| 0.0511 µM | Fc1ccccc1[C@@H]1Cc2cnc(Nc3cccc(CCN4CCNCC4)c3)nc2-c2ccccc21 [Example 163, (R)-6-(2-fluorophenyl)-N-(3-(2-(piperazin-1-yl)ethyl)phenyl)-5,6-dihydrobenzo[h]quinazolin-2-amine] | 1.38 µM | 1.39 µM | 0.894 µM | 1.19 µM |  |  |  |  |  |  | melting point: 165 to 167 °C |
|  | CCN(CC)CCNC(=O)c1c(C)[nH]c(/C=C2\C(=O)Nc3ccc(F)cc32)c1C [Sunitinib, reference compound] |  |  |  |  |  |  |  |  |  |  | pIC50 (KATO III [2]; Homo sapiens, read-out: MTS IC50): 6.52; pIC50 (SNU-16 [3]): 5.37; pIC50 (SNU-16 [1]; SNU-16, read-out: MTS IC50): 5.96; pIC50 (KATO III [4]): 5.80 |
| 0.0174 µM | CN1CCN(CCc2cccc(Nc3ncc4c(n3)-c3ccccc3[C@H](c3ccccc3F)C4)c2)CC1 [Example 161, (R)-6-(2-fluorophenyl)-N-(3-(2-(4-methylpiperazin-1-yl)ethyl)phenyl)-5,6-dihydrobenzo[h]quinazolin-2-amine hydrochloride] | 1.47 µM | 0.738 µM | 0.397 µM | 0.627 µM |  |  |  |  |  |  |  |
| 0.0443 µM | COCCN1CCN(CCc2cc(Nc3ncc4c(n3)-c3ccccc3[C@H](c3ccccc3F)C4)ccc2F)CC1 [Example 175, (R)-N-(4-fluoro-3-(2-(4-(2-methoxyethyl)piperazin-1-yl)ethyl)phenyl)-6-(2-fluorophenyl)-5,6-dihydrobenzo[h]quinazolin-2-amine hydrochloride salt] | 2.97 µM | 2.39 µM | 1.04 µM | 1.54 µM |  |  |  |  |  |  |  |
|  | Cc1ccc(S(=O)(=O)Nc2ccc(C3Cc4cnc(NCCCCN(C)C)nc4-c4ccccc43)cc2)cc1 (stereo not drawn) [Example 420, N-[4-(2-{[4-(dimethylamino)butyl]amino}-5,6-dihydrobenzo[h]quinazolin-6-yl)phenyl]-4-methylbenzenesulfonamide] |  |  |  |  | A (A = 80-100% inhibition) | A (A = 80-100% inhibition) | A (A = 80-100% inhibition) | A (A = 80-100% inhibition) | A (A = 80-100% inhibition) | A (A = 80-100% inhibition) |  |
|  | CN(C)CCCCNc1ncc2c(n1)-c1ccccc1C(c1ccc(NS(=O)(=O)c3cccc(C(F)(F)F)c3)cc1)C2 (stereo not drawn) [Example 430, N-[4-(2-{[4-(dimethylamino)butyl]amino}-5,6-dihydrobenzo[h]quinazolin-6-yl)phenyl]-3-(trifluoromethyl)benzenesulfonamide] |  |  |  |  | A (A = 80-100% inhibition) | A (A = 80-100% inhibition) | A (A = 80-100% inhibition) | A (A = 80-100% inhibition) | A (A = 80-100% inhibition) | A (A = 80-100% inhibition) |  |
| 0.0433 µM | CN1CCN(CCc2cc(Nc3ncc4c(n3)-c3ccccc3[C@H](c3ccccc3F)C4)ccc2F)CC1 [Example 174, (R)-N-(4-fluoro-3-(2-(4-methylpiperazin-1-yl)ethyl)phenyl)-6-(2-fluorophenyl)-5,6-dihydrobenzo[h]quinazolin-2-amine hydrochloride salt] | 3.54 µM | 2 µM | 1.16 µM | 1.52 µM |  |  |  |  |  |  |  |
|  | CCCc1ccc(C(=O)Nc2ccc(C3Cc4cnc(NCCCCN(C)C)nc4-c4ccccc43)cc2)cc1 (stereo not drawn) [Example 470, N-[4-(2-{[4-(dimethylamino)butyl]amino}-5,6-dihydrobenzo[h]quinazolin-6-yl)phenyl]-4-propylbenzamide] |  |  |  |  | A (A = 80-100% inhibition) | A (A = 80-100% inhibition) | A (A = 80-100% inhibition) | A (A = 80-100% inhibition) | A (A = 80-100% inhibition) | A (A = 80-100% inhibition) |  |
|  | COc1ccc(OC)c(CC(=O)Nc2ccc(C3Cc4cnc(NCCCCN(C)C)nc4-c4ccccc43)cc2)c1 (stereo not drawn) [Example 473] |  |  |  |  | A (A = 80-100% inhibition) | A (A = 80-100% inhibition) | A (A = 80-100% inhibition) | A (A = 80-100% inhibition) | A (A = 80-100% inhibition) | A (A = 80-100% inhibition) |  |
|  | Cc1cccc(Cl)c1S(=O)(=O)Nc1ccc(C2Cc3cnc(NCCCCN(C)C)nc3-c3ccccc32)cc1 (stereo not drawn) [Example 431, 2-chloro-N-[4-(2-{[4-(dimethylamino)butyl]amino}-5,6-dihydrobenzo[h]quinazolin-6-yl)phenyl]-6-methylbenzenesulfonamide] |  |  |  |  | A (A = 80-100% inhibition) | A (A = 80-100% inhibition) | A (A = 80-100% inhibition) | A (A = 80-100% inhibition) | B (B = 50-79% inhibition) | A (A = 80-100% inhibition) |  |
|  | Cc1cccc(C(=O)Nc2ccc(C3Cc4cnc(NCCCCN(C)C)nc4-c4ccccc43)cc2)c1 (stereo not drawn) [Example 469, N-[4-(2-{[4-(dimethylamino)butyl]amino}-5,6-dihydrobenzo[h]quinazolin-6-yl)phenyl]-3-methylbenzamide] |  |  |  |  | A (A = 80-100% inhibition) | A (A = 80-100% inhibition) | A (A = 80-100% inhibition) | A (A = 80-100% inhibition) | A (A = 80-100% inhibition) | A (A = 80-100% inhibition) |  |
